Results from PubChem BioAssay (NCI).
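Results reflect a 48-hour exposure of cells in 96-well plates to compound at five concentrations. At the GI50, growth is halved. The concentration for full growth arrest is given as TGI.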

Key:
Assay in all cases: DTP human tumour cell line panel, 48 h
[1] = tested on: 786-0 renal
[2] = tested on: A498 renal
[3] = tested on: A549 NSCLC
[4] = tested on: ACHN renal
[5] = tested on: BT-549 breast
[6] = tested on: CAKI-1 renal
[7] = tested on: CCRF-CEM leukemia
[8] = tested on: COLO 205 colon
[9] = tested on: DU-145 prostate
[10] = tested on: EKVX NSCLC
[11] = tested on: HCC-2998 colon
[12] = tested on: HCT-116 colon
[13] = tested on: HCT-15 colon
[14] = tested on: HL-60(TB) leukemia
[15] = tested on: HOP-62 NSCLC
[16] = tested on: HOP-92 NSCLC
[17] = tested on: HS 578T breast
[18] = tested on: HT29 colon
[19] = tested on: IGROV1 ovarian
[20] = tested on: K-562 leukemia
[21] = tested on: KM12 colon
[22] = tested on: M14 melanoma
[23] = tested on: MALME-3M melanoma
[24] = tested on: MCF7 breast
[25] = tested on: MDA-MB-231 breast
[26] = tested on: MDA-MB-435
[27] = tested on: MOLT-4 leukemia
[28] = tested on: NCI-H226 lung
[29] = tested on: NCI-H23 lung
[30] = tested on: NCI-H460 lung
[31] = tested on: NCI-H522 lung
[32] = tested on: NCI/ADR-RES ovarian
[33] = tested on: OVCAR-3 ovarian
[34] = tested on: OVCAR-4 ovarian
[35] = tested on: OVCAR-5 ovarian
[36] = tested on: OVCAR-8 ovarian
[37] = tested on: PC-3 prostate
[38] = tested on: RPMI-8226 leukemia
[39] = tested on: RXF 393 renal
[40] = tested on: SF-268 CNS
[41] = tested on: SF-295 CNS
[42] = tested on: SF-539 CNS
[43] = tested on: SK-MEL-2 melanoma
[44] = tested on: SK-MEL-28 melanoma
[45] = tested on: SK-MEL-5 melanoma
[46] = tested on: SK-OV-3 ovarian
[47] = tested on: SN12C renal
[48] = tested on: SNB-19 CNS
[49] = tested on: SNB-75 CNS
[50] = tested on: SR leukemia
[51] = tested on: SW-620 colon
[52] = tested on: T-47D breast
[53] = tested on: TK-10 renal
[54] = tested on: U251 CNS
[55] = tested on: UACC-257 melanoma
[56] = tested on: UACC-62 melanoma
[57] = tested on: UO-31 renal

COc1cc(/C=C/C(=O)c2cc(OC)c(OC)c(OC)c2)ccc1OCc1ccc(F)cc1
GI50 [1]: 7.22 µM | TGI [1]: > 100 µM | GI50 [2]: 48 µM | TGI [2]: > 100 µM | GI50 [3]: 3.11 µM | TGI [3]: > 100 µM | GI50 [4]: 4.92 µM | TGI [4]: > 100 µM | GI50 [5]: 3.36 µM | TGI [5]: 15.5 µM | GI50 [6]: 4.35 µM | TGI [6]: > 100 µM | GI50 [7]: 3.13 µM | TGI [7]: > 100 µM | GI50 [8]: 5.27 µM | TGI [8]: > 100 µM | GI50 [9]: 3.72 µM | TGI [9]: > 100 µM | GI50 [10]: 18.4 µM | TGI [10]: > 100 µM | GI50 [11]: 2.94 µM | TGI [11]: 8.17 µM | GI50 [12]: 2.85 µM | TGI [12]: > 100 µM | GI50 [13]: 2.66 µM | TGI [13]: > 100 µM | GI50 [14]: 2.73 µM | TGI [14]: > 100 µM | GI50 [15]: 3.64 µM | TGI [15]: 37.6 µM | GI50 [16]: 2.15 µM | TGI [16]: 8.99 µM | GI50 [17]: 6.03 µM | TGI [17]: 84.2 µM | GI50 [18]: 3.43 µM | TGI [18]: > 100 µM | GI50 [19]: 3.38 µM | TGI [19]: > 100 µM | GI50 [20]: 2.94 µM | TGI [20]: > 100 µM | GI50 [21]: 4.95 µM | TGI [21]: > 100 µM | GI50 [22]: 5.74 µM | TGI [22]: > 100 µM | GI50 [23]: 6 µM | TGI [23]: > 100 µM | GI50 [24]: 2.45 µM | TGI [24]: > 100 µM | GI50 [25]: 2.96 µM | TGI [25]: 24.6 µM | GI50 [26]: 3.6 µM | TGI [26]: > 100 µM | GI50 [27]: 3.14 µM | TGI [27]: > 100 µM | GI50 [28]: 3.48 µM | TGI [28]: > 100 µM | GI50 [29]: 5.29 µM | TGI [29]: > 100 µM | GI50 [30]: 4.56 µM | TGI [30]: > 100 µM | GI50 [31]: 2.31 µM | TGI [31]: 15.5 µM | GI50 [32]: 4.2 µM | TGI [32]: > 100 µM | GI50 [33]: 3.84 µM | TGI [33]: > 100 µM | GI50 [34]: 3.62 µM | TGI [34]: > 100 µM | GI50 [35]: 3.9 µM | TGI [35]: > 100 µM | GI50 [36]: 2.88 µM | TGI [36]: 16.6 µM | GI50 [37]: 3.67 µM | TGI [37]: > 100 µM | GI50 [38]: 1.68 µM | TGI [38]: > 100 µM | GI50 [39]: 3.4 µM | TGI [39]: 49.8 µM | GI50 [40]: 4.8 µM | TGI [40]: > 100 µM | GI50 [41]: 3.65 µM | TGI [41]: > 100 µM | GI50 [42]: 2.12 µM | TGI [42]: 5.13 µM | GI50 [43]: 8.57 µM | TGI [43]: 64.4 µM | GI50 [44]: 6.52 µM | TGI [44]: > 100 µM | GI50 [45]: 3.41 µM | TGI [45]: 26.3 µM | GI50 [46]: 3.61 µM | TGI [46]: 54.6 µM | GI50 [47]: 2.73 µM | TGI [47]: 15.4 µM | GI50 [48]: 4 µM | TGI [48]: > 100 µM | GI50 [49]: 2.06 µM | TGI [49]: 7.48 µM | GI50 [50]: 1.73 µM | TGI [50]: > 100 µM | GI50 [51]: 4.31 µM | TGI [51]: > 100 µM | GI50 [52]: 3.22 µM | TGI [52]: > 100 µM | GI50 [53]: 16.6 µM | TGI [53]: > 100 µM | GI50 [54]: 3.74 µM | TGI [54]: > 100 µM | GI50 [55]: 3.82 µM | TGI [55]: > 100 µM | GI50 [56]: 3.15 µM | TGI [56]: 52.3 µM | GI50 [57]: 3.88 µM | TGI [57]: > 100 µM

O=C(CSc1nnc(-c2ccc(Cl)cc2)n1-c1ccccc1)Nc1cccc(F)c1
GI50 [2]: 4.5 µM | TGI [2]: 73.9 µM | GI50 [3]: 2.77 µM | TGI [3]: > 100 µM | GI50 [5]: > 100 µM | TGI [5]: > 100 µM | GI50 [6]: 2.89 µM | TGI [6]: > 100 µM | GI50 [7]: > 100 µM | TGI [7]: > 100 µM | GI50 [8]: > 100 µM | TGI [8]: > 100 µM | GI50 [9]: > 30.3 µM | TGI [9]: > 100 µM | GI50 [10]: > 23 µM | TGI [10]: > 100 µM | GI50 [11]: > 30.3 µM | TGI [11]: > 100 µM | GI50 [12]: 2.38 µM | TGI [12]: > 100 µM | GI50 [13]: > 100 µM | TGI [13]: > 100 µM | GI50 [14]: > 100 µM | TGI [14]: > 100 µM | GI50 [15]: 3.18 µM | TGI [15]: > 26.4 µM | GI50 [16]: 4 µM | TGI [16]: > 100 µM | GI50 [17]: 3.3 µM | TGI [17]: > 100 µM | GI50 [18]: > 27 µM | TGI [18]: > 100 µM | GI50 [19]: 3.2 µM | TGI [19]: > 100 µM | GI50 [20]: > 100 µM | TGI [20]: > 100 µM | GI50 [21]: > 21 µM | TGI [21]: > 100 µM | GI50 [22]: > 100 µM | TGI [22]: > 100 µM | GI50 [23]: 3.9 µM | TGI [23]: > 100 µM | GI50 [24]: 3.47 µM | TGI [24]: > 100 µM | GI50 [25]: 2.36 µM | TGI [25]: > 24.2 µM | GI50 [26]: > 100 µM | TGI [26]: > 100 µM | GI50 [27]: > 100 µM | TGI [27]: > 100 µM | GI50 [28]: 4.11 µM | TGI [28]: > 100 µM | GI50 [29]: 5.14 µM | TGI [29]: > 100 µM | GI50 [30]: 1.49 µM | GI50 [32]: 2.26 µM | TGI [32]: 8.77 µM | GI50 [33]: 4.11 µM | TGI [33]: 73.9 µM | GI50 [34]: > 100 µM | TGI [34]: > 100 µM | TGI [35]: > 100 µM | GI50 [36]: 3.03 µM | TGI [36]: > 100 µM | GI50 [37]: > 100 µM | TGI [37]: > 100 µM | GI50 [39]: 2.86 µM | TGI [39]: > 36 µM | GI50 [40]: > 21.4 µM | TGI [40]: > 100 µM | GI50 [41]: 3.98 µM | TGI [41]: > 70.6 µM | GI50 [42]: 2.33 µM | TGI [42]: > 22.4 µM | GI50 [43]: > 100 µM | TGI [43]: > 100 µM | GI50 [44]: > 100 µM | TGI [44]: > 100 µM | GI50 [45]: > 55.4 µM | TGI [45]: > 100 µM | GI50 [46]: 10.2 µM | TGI [46]: > 100 µM | GI50 [47]: 1.91 µM | TGI [47]: 6.26 µM | GI50 [48]: 6.27 µM | TGI [48]: > 100 µM | GI50 [49]: 2.09 µM | TGI [49]: > 30.5 µM | GI50 [50]: > 35.3 µM | TGI [50]: > 100 µM | GI50 [51]: 5 µM | TGI [51]: > 100 µM | GI50 [52]: 1.58 µM | TGI [52]: > 100 µM | GI50 [53]: 4.65 µM | TGI [53]: > 100 µM | GI50 [54]: 1.62 µM | TGI [54]: 4.46 µM | GI50 [55]: > 100 µM | TGI [55]: > 100 µM | GI50 [56]: > 100 µM | TGI [56]: > 100 µM
